Results on four molecules are retold here after patent US5739359A, “Methods for preparing 1-deoxy paclitaxels” (Virginia Tech Intellectual Properties, Inc., priority 1997, dated 1998).

pIC50: −log10 of the molar value.

Assay [1] concerns paclitaxel-resistant cell line HCT116/VM46. As to the kind of experiment: cells. The class given is cell-based. The conditions noted are these: Homo sapiens, HCT-116/VM46, 72 h, read-out: Cytotoxicity Assay IC50. The protocol: Cytotoxicity was assessed in HCT-116 and line HCT116/VM46 human colon carcinoma cells by MTS (3-(4,5-dimethylthiazol-2-yl)-5-(3-carboxymethoxyphenyl)-2-(4-sulphenyl)-2H-tetrazolium, inner salt) assay as reported in T. L. Riss, el. al., "Comparison of MTT, XTT, and a novel tetrazolium compound MTS for in vitro proliferation and chemosensitivity assays.," Mol. Biol. Cell 3 (Suppl.):184a, 1992. Cells were plated at 4,000 cell/well in 96 well microliter plates and 24 hours later drugs were added and serial diluted. The cells were incubated at 37° for 72 hours at which time the tetrazolium dye, MTS at 333 μg/ml (final concentration), in combination with the electron coupling agent phenazine methosulfate at 25 μM (final concentration) was added. A dehydrogenase enzyme in live cells reduces the MTS to a form that absorbs light at […] which can be quantitated spectrophotometrically. The greater the absorbance the greater the number of live cells. The results are expressed as an IC50, which is the drug concentration required to inhibit cell proliferation (i.e. absorbance at 450 nm) to 50% of that of untreated control cells. The IC50 values for compounds evaluated in this assay are evaluated in Table I.

Assay [2] relates to human colon carcinoma cells HCT-116. As to the kind of experiment: MTS in vitro cytotoxicity assay, HCT-116. The class given is cell-based. The conditions noted are these: 72 h exposure. The protocol: Cells were plated at 4,000 cell/well in 96 well microliter plates and 24 hours later drugs were added and serial diluted. […] The greater the absorbance the greater the number of live cells.

The conditions of assay [3]: in vivo animal models; cited from earlier work.

For `CC(=O)O[C@@]12CO[C@@H]1C[C@@H]1OC(C)(C)O[C@H]3[C@H](O)C4=C(C)[C@@H](OC(=O)[C@H](O)[C@@H](NC(=O)c5ccccc5)c5ccccc5)C[C@@H]([C@@H](OC(=O)c5ccccc5)[C@H]2[C@@]13C)C4(C)C` [Compound 7a, 10-Deacetyl-1-deoxy-9(R)-dihydropaclitaxel 7,9-acetonide], the negative logarithm of the IC50 (pIC50) in assay [1] was 10.94. Take `CC(=O)O[C@@]12CO[C@@H]1C[C@@H]1OC(c3ccccc3)O[C@H]3[C@H](O)C4=C(C)[C@@H](OC(=O)[C@H](O)[C@@H](NC(=O)OC(C)(C)C)c5ccccc5)C[C@@H]([C@@H](OC(=O)c5ccccc5)[C@H]2[C@@]13C)C4(C)C` (stereo partly drawn) [Compound 7b, 1-deoxy-9(R)-dihydrodocetaxel 7,9-benzylidene acetal]: the pIC50 in assay [2] is 10.98; in assay [1], 10.53. Regarding `CC(=O)O[C@@H]1C2=C(C)[C@@H](OC(=O)[C@H](O)[C@@H](NC(=O)OC(C)(C)C)c3ccccc3)C[C@@H]([C@@H](OC(=O)c3ccccc3)[C@@H]3[C@]4(OC(C)=O)CO[C@@H]4C[C@H](OC(C)=O)[C@@]3(C)[C@H]1OC(C)=O)C2(C)C` [Compound 7c, 7,9,10-triacetyl-1-deoxy-9(R)-dihydrodocetaxel], the pIC50 in assay [1] is 10.66.

`CC(=O)O[C@H]1C(=O)[C@@]2(C)[C@H]([C@H](OC(=O)c3ccccc3)[C@]3(O)C[C@H](OC(=O)[C@H](O)[C@@H](NC(=O)c4ccccc4)c4ccccc4)C(C)=C1C3(C)C)[C@]1(OC(C)=O)CO[C@@H]1C[C@@H]2O` [paclitaxel]: in assay [1], the pIC50 is 9.65. In addition, in assay [3], the “antitumor activity (in words)” value was “excellent antitumor activity”.
